The record followed here is PubChem BioAssay AID264 (DTP/NCI, 2004).

The structures appear in SMILES notation. “And” between values parts separate entries of the source, which are not always exact repeats. Equal entries are not always repeated. Inconclusive results are not listed.

The experiment relates to nude mice, LX-1 lung xenograft intrarenal, tumor weight T/C. The experiment in a line: NCI In Vivo Anticancer Drug Screen. Data for tumor model Human Lung LX-1 Xenograft (intrarenal inoculation) in NU/NU Swiss (nude) mice. The following applies: endpoint: mean tumor weight change, higher = larger tumour. The method in brief: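 Antitumor effect is expressed as a ratio: the mean tumor measurement of the drug-treated group relative to that of the vehicle-dosed control group.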
For orientation: Xenograft models place foreign cells or tissue in a host animal.

Where [1] appears, read: dose: 75.0 mg/kg/injection, schedule: Q04DX003 (sc), vehicle: saline with Tween-80.
Where [2] appears, read: dose: 150.0 mg/kg/injection, schedule: Q04DX003 (sc), vehicle: saline with Tween-80.
Where [3] appears, read: dose: 300.0 mg/kg/injection, schedule: Q04DX003 (sc), vehicle: saline with Tween-80.
The mark [4] stands for this setting: dose: 100.0 mg/kg/injection, schedule: Q01DX010 (sc), vehicle: saline with Tween-80.
Setting [5] is: dose: 200.0 mg/kg/injection, schedule: Q01DX010 (sc), vehicle: saline with Tween-80.
The mark [6] stands for this setting: dose: 400.0 mg/kg/injection, schedule: Q01DX010 (sc), vehicle: Klucel (hydroxypropylcellulose) (HPC).
[7] abbreviates: dose: 40.0 mg/kg/injection, schedule: Q04DX003 (sc), vehicle: Klucel (hydroxypropylcellulose) (HPC).
The mark [8] stands for this setting: dose: 300.0 mg/kg/injection, schedule: Q04DX003 (sc), vehicle: suspension in saline.
Where [9] appears, read: dose: 600.0 mg/kg/injection, schedule: Q04DX003 (sc), vehicle: suspension in saline.
[10] abbreviates: dose: 1200.0 mg/kg/injection, schedule: Q04DX003 (sc), vehicle: suspension in saline.

As for `CS(=O)(=O)c1ncc(Br)cn1`, the T/C under setting [1] was 100 % of control, the T/C under setting [2] is 57 % of control and the T/C under setting [3] is 84 % of control.
Consider `BrCC[Se]c1ccccc1`, for which the T/C (dose: 50.0 mg/kg/injection, schedule: Q01DX010 (sc), vehicle: saline with Tween-80) was 92 % of control; the T/C under setting [4] is 62 % of control; the T/C under setting [5] is 55 % of control.
With `N#CC(=C1C=CC(=NO)C=C1)c1ccc(Cl)cc1`, the T/C was 173 % of control under setting [2]; 175 % of control and 198 % of control (dose: 1200.0 mg/kg/injection, schedule: Q04DX003 (sc), vehicle: saline with Tween-80); 180 % of control (dose: 2400.0 mg/kg/injection, schedule: Q04DX003 (sc), vehicle: saline with Tween-80).
On to `CCCCCCCCCCCCCC#CC(=O)O`, for which the T/C reads like this: under setting [1], 89 % of control; under setting [2], 112 % of control; under setting [3], 105 % of control.
In the case of `CC(=O)O[C@H]1C(=O)[C@@]2(C)[C@H]([C@H](OC(=O)c3ccccc3)[C@]3(O)C[C@H](OC(=O)[C@H](O)[C@@H](NC(=O)c4ccccc4)c4ccccc4)C(C)=C1C3(C)C)[C@]1(OC(C)=O)CO[C@@H]1C[C@@H]2O`, the T/C by setting is: (dose: 25.0 mg/kg/injection, schedule: Q01DX010 (sc), vehicle: Klucel (hydroxypropylcellulose) (HPC)) 40 % of control; under setting [6], 14 % of control.
In the case of `c1ccc([P+](c2ccccc2)(c2ccccc2)c2ccccc2)cc1`, the T/C reads like this: (dose: 2.5 mg/kg/injection, schedule: Q04DX003 (sc), vehicle: saline) 93 % of control; (dose: 5.0 mg/kg/injection, schedule: Q04DX003 (sc), vehicle: saline) 107 % of control; (dose: 10.0 mg/kg/injection, schedule: Q04DX003 (sc), vehicle: saline) 71 % of control and 87 % of control.
Turning to `Cc1c(N)nc(C(CC(N)=O)NCC(N)C(N)=O)nc1C(=O)NC(C(=O)NC(C)C(O)C(C)C(=O)NC(C(=O)NCCc1nc(-c2nc(C(=O)NCCCNCCCc3ccccn3)cs2)cs1)C(C)O)C(OC1OC(CO)C(O)C(O)C1OC1OC(CO)C(O)C(OC(N)=O)C1O)c1cnc[nH]1` (stereo unspecified), the T/C is, setting by setting: (dose: 3.0 mg/kg/injection, schedule: Q01DX010 (sc), vehicle: water) 16 % of control; (dose: 12.0 mg/kg/injection, schedule: Q01DX010 (sc), vehicle: water) -82 % of control.
On to `COc1cc2cc(c1Cl)N(C)C(=O)CC(OC(=O)CC(C)C)C1(C)OC1C(C)C1CC(O)(NC(=O)O1)C(OC)/C=C/C=C(C)C2` (stereo unspecified), for which the T/C is 73 % of control (dose: 12.5 micrograms/kg/injection, schedule: Q01DX010 (sc), vehicle: saline + alcohol); 59 % of control (dose: 25.0 micrograms/kg/injection, schedule: Q01DX010 (sc), vehicle: saline + alcohol); 107 % of control (dose: 50.0 micrograms/kg/injection, schedule: Q01DX010 (sc), vehicle: saline + alcohol).
For `O=C1C2(Cl)C3(Cl)C4(Cl)C(Cl)(Cl)C5(Cl)[C@]3(Cl)C1(Cl)[C@]5(Cl)C24Cl` (stereo partly specified), the T/C runs as follows: (dose: 37.5 mg/kg/injection, schedule: Q04DX003 (sc), vehicle: Klucel (hydroxypropylcellulose) (HPC)) 118 % of control; (dose: 75.0 mg/kg/injection, schedule: Q04DX003 (sc), vehicle: Klucel (hydroxypropylcellulose) (HPC)) 95 % of control; (dose: 150.0 mg/kg/injection, schedule: Q04DX003 (sc), vehicle: Klucel (hydroxypropylcellulose) (HPC)) 78 % of control.
On to `Cc1cc(O)c(N=Nc2ccc(C(=O)O)cc2)cc1C`, for which the T/C was 77 % of control under setting [4]; 67 % of control under setting [5]; 62 % of control (dose: 400.0 mg/kg/injection, schedule: Q01DX010 (sc), vehicle: saline with Tween-80); 59 % of control (dose: 800.0 mg/kg/injection, schedule: Q01DX010 (sc), vehicle: saline with Tween-80).
Consider `COc1cc2cc3c4cc(OC)c(OC)cc4cc[n+]3c(C)c2cc1OC` (tested in a mixture with another compound), for which the T/C was 118 % of control (dose: 50.0 mg/kg/injection, schedule: Q01DX010 (sc), vehicle: saline) and 46 % of control (dose: 100.0 mg/kg/injection, schedule: Q01DX010 (sc), vehicle: saline).
Regarding `O=c1[nH]cnc2n[nH]nc12`, the T/C (dose: 300.0 mg/kg/injection, schedule: Q04DX003 (sc), vehicle: Klucel (hydroxypropylcellulose) (HPC)) is 100 % of control; the T/C (dose: 600.0 mg/kg/injection, schedule: Q04DX003 (sc), vehicle: Klucel (hydroxypropylcellulose) (HPC)) was 92 % of control; the T/C (dose: 1200.0 mg/kg/injection, schedule: Q04DX003 (sc), vehicle: Klucel (hydroxypropylcellulose) (HPC)) was 35 % of control; the T/C (dose: 2400.0 mg/kg/injection, schedule: Q04DX003 (sc), vehicle: Klucel (hydroxypropylcellulose) (HPC)) was 27 % of control.
For `C[C@@]12C(=O)OC(=O)[C@]1(C)[C@H]1CC[C@@H]2O1`, the T/C reads like this: (dose: 1.25 mg/kg/injection, schedule: Q04DX003 (sc), vehicle: Klucel (hydroxypropylcellulose) (HPC)) 113 % of control; (dose: 2.5 mg/kg/injection, schedule: Q04DX003 (sc), vehicle: Klucel (hydroxypropylcellulose) (HPC)) 86 % of control.
As for `C=C(NC(=O)C(=C)NC(=O)c1csc(C2=NC3c4csc(n4)C4NC(=O)c5csc(n5)C(C(C)(O)C(C)O)NC(=O)C5CSC(=N5)/C(=C/C)NC(=O)C(C(C)O)NC(=O)c5csc(n5)C3(CC2)NC(=O)C(C)NC(=O)C(=C)NC(=O)C(C)NC(=O)C(C(C)CC)NC2C=Cc3c(C(C)O)cc(nc3C2O)C(=O)OC4C)n1)C(N)=O` (stereo unspecified), the T/C by setting is: (dose: 200.0 mg/kg/injection, schedule: Q01DX010 (sc), vehicle: Klucel (hydroxypropylcellulose) (HPC)) 90 % of control; under setting [6], 65 % of control; (dose: 1600.0 mg/kg/injection, schedule: Q01DX010 (sc), vehicle: Klucel (hydroxypropylcellulose) (HPC)) 53 % of control.
`COC1C(C)OC(OC2CC(C)(O)Cc3cc4c(c(O)c32)C(=O)c2c(O)cc3c(c2C4=O)OC2OC3(C)C(O)C(N(C)C)C2O)C(OC)C1(C)OC` (stereo unspecified): the T/C is 118 % of control (dose: 5.0 mg/kg/injection, schedule: Q04DX003 (sc), vehicle: Klucel (hydroxypropylcellulose) (HPC)); 60 % of control (dose: 20.0 mg/kg/injection, schedule: Q04DX003 (sc), vehicle: Klucel (hydroxypropylcellulose) (HPC)); 98 % of control under setting [7].
In the case of `O=C1NC2(CCCCC2)C(=O)N1CCN(CCCl)CCCl`, the T/C reads like this: (dose: 4.0 mg/kg/injection, schedule: Q01DX010 (sc), vehicle: suspension in saline) 524 % of control; (dose: 6.0 mg/kg/injection, schedule: Q01DX010 (sc), vehicle: saline) 85 % of control; (dose: 6.0 mg/kg/injection, schedule: Q01DX010 (sc), vehicle: suspension in saline) 39 % of control and 58 % of control; (dose: 8.0 mg/kg/injection, schedule: Q01DX010 (sc), vehicle: suspension in saline) 244 % of control; (dose: 12.0 mg/kg/injection, schedule: Q01DX010 (sc), vehicle: saline) 31 % of control; (dose: 16.0 mg/kg/injection, schedule: Q01DX010 (sc), vehicle: suspension in saline) 115 % of control. Moreover, for the setting “dose: 32.0 mg/kg/injection, schedule: Q01DX010 (sc), vehicle: suspension in saline”, the T/C is 63 % of control.
Regarding `COC1=NCN=C2SC=C(N)N=C12`, the T/C (dose: 150.0 mg/kg/injection, schedule: Q04DX003 (sc), vehicle: suspension in saline) is 79 % of control.
Regarding `Cc1cc(NCCN(C(C)C)C(C)C)nc(/N=C(\N)Nc2ccc(Cl)c(C(F)(F)F)c2)n1`, the T/C runs as follows: under setting [7], 45 % of control; (dose: 80.0 mg/kg/injection, schedule: Q04DX003 (sc), vehicle: Klucel (hydroxypropylcellulose) (HPC)) 60 % of control; (dose: 160.0 mg/kg/injection, schedule: Q04DX003 (sc), vehicle: Klucel (hydroxypropylcellulose) (HPC)) 46 % of control; (dose: 320.0 mg/kg/injection, schedule: Q04DX003 (sc), vehicle: Klucel (hydroxypropylcellulose) (HPC)) 62 % of control.
As for `O=C1OC(=O)[C@H]2[C@@H]1[C@H]1C=C[C@@H]2OC1=O`, the T/C is, setting by setting: under setting [8], 90 % of control; under setting [9], 104 % of control; under setting [10], 72 % of control.
In the same order, the values of `CCOC(=O)C1=C(C#N)C2(CCC(OCc3ccccc3)CC2)C(=O)O1` (stereo unspecified) are 106 % of control, 111 % of control and 77 % of control.
